According to article PMC11090339, “Synthesis, molecular docking study and biological evaluation of new pyrrole scaffolds as potential antitubercular agents for dual targeting of enoyl ACP reductase and dihydrofolate reductase” (PLOS ONE, 2024):
In brackets after ≈: the same amount, converted by molar mass.

Experiments:
[1] = system: M. tuberculosis H37Rv; experiment: Antitubercular activity, Microplate Alamar Blue test (MABA); assay type: cell-based; conditions: Mycobacterium tuberculosis
[2] = system: S. aureus (Gram-positive); experiment: Antibacterial activity, broth microdilution method; assay type: cell-based; conditions: Staphylococcus aureus, read-out: S. aureus (Gram +ve) MIC
[3] = system: E. coli (Gram-negative); experiment: Antibacterial activity, broth microdilution method; assay type: cell-based; conditions: Escherichia coli, read-out: E. coli (Gram–ve) MIC
[4] = target: InhA (Mycobacterium tuberculosis, UniProt P9WGR1); experiment: Enoyl ACP reductase (InhA) inhibition; assay type: biochemical
[5] = target: MtDHFR (Mycobacterium tuberculosis, UniProt P9WNX1); experiment: biochemical; assay type: biochemical; conditions: for MtDHFR inhibition compared with trimethoprim: in words
[6] = system: A549 (lung adenocarcinoma) cell-lines; experiment: MTT-based cytotoxicity activity; assay type: cell-based; conditions: Homo sapiens, means ± SEM of three independent experiments
[7] = system: Mammalian Vero cell-lines; experiment: MTT-based cytotoxicity activity; conditions: Chlorocebus sabaeus, means ± SEM of three independent experiments, read-out: IC50 MV cell-lines

InhA, sequence (P9WGR1 whole entry, looked up): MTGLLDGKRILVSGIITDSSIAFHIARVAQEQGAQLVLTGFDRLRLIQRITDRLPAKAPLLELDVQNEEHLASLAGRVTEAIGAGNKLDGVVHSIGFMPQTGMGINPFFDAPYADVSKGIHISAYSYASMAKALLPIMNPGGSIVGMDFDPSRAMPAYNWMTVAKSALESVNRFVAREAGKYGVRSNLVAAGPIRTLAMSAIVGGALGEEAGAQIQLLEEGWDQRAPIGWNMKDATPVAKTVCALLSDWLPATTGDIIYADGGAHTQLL
MtDHFR, sequence (P9WNX1 whole entry): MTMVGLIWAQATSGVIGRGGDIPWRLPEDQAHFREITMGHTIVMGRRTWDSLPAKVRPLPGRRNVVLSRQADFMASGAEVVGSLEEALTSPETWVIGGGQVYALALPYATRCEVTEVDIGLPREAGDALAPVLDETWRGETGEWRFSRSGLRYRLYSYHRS

SMILES: Cc1ccc(OCC(=O)NNC(=O)c2ccc(-n3cccc3)cc2)cc1 [Compound 3b, 4-(1H-pyrrol-1-yl)-N’-(2-(p-tolyloxy)acetyl)benzohydrazide]
- MIC [1]: 12.5 µg/mL (≈ 35.8 µM)
- MIC [2]: 100 µg/mL (≈ 286 µM)
- MIC [3]: 6.25 µg/mL (≈ 17.9 µM)

SMILES: NC(=O)c1cnccn1 [Pyrazinamide, reference compound]
- MIC [1]: 3.12 µg/mL (≈ 25.3 µM)

SMILES: O=C(COc1ccccc1Cl)NNC(=O)c1ccc(-n2cccc2)cc1 [Compound 3j, N’-(2-(2-chlorophenoxy)acetyl)-4-(1H-pyrrol-1-yl)benzohydrazide]
- MIC [1]: 12.5 µg/mL (≈ 33.8 µM)
- MIC [2]: 100 µg/mL (≈ 270 µM)
- MIC [3]: 6.25 µg/mL (≈ 16.9 µM)

SMILES: Cc1cc(C)cc(OCC(=O)NNC(=O)c2ccc(-n3c(C)ccc3C)cc2)c1 [Compound 5h, 4-(2,5-dimethyl-1H-pyrrol-1-yl)-N’-(2-(3,5-dimethylphenoxy)acetyl) benzohydrazide]
- MIC [1]: 3.12 µg/mL (≈ 7.97 µM)
- MIC [2]: 100 µg/mL (≈ 255 µM)
- MIC [3]: 3.12 µg/mL (≈ 7.97 µM)

SMILES: Cc1ccc(C)n1-c1ccc(C(=O)NNC(=O)COc2ccccc2Cl)cc1 [Compound 5j, N’-(2-(2-chlorophenoxy)acetyl)-4-(2,5-dimethyl-1H-pyrrol-1-yl) ben zohydrazide]
- MIC [1]: 3.12 µg/mL (≈ 7.84 µM)
- MIC [2]: 100 µg/mL (≈ 251 µM)
- MIC [3]: 6.25 µg/mL (≈ 15.7 µM)

SMILES: Cc1ccc(C)n1-c1ccc(C(=O)NNC(=O)COc2cccc(O)c2)cc1 [Compound 5i, 4-(2,5-dimethyl-1H-pyrrol-1-yl)-N’-(2-(3-hydroxyphenoxy)acetyl) benzohydrazide]
- MIC [1]: 6.25 µg/mL (≈ 16.5 µM)
- MIC [2]: 100 µg/mL (≈ 264 µM)
- MIC [3]: 3.12 µg/mL (≈ 8.22 µM)

SMILES: Cc1cccc(OCC(=O)NNC(=O)c2ccc(-n3cccc3)cc2)c1 [Compound 3e, 4-(1H-pyrrol-1-yl)-N’-(2-(m-tolyloxy)acetyl)benzohydrazide]
- MIC [1]: 6.25 µg/mL (≈ 17.9 µM)
- MIC [2]: 100 µg/mL (≈ 286 µM)
- MIC [3]: 12.5 µg/mL (≈ 35.8 µM)

SMILES: Cc1ccc(C)n1-c1ccc(C(=O)NNC(=O)COc2cc(O)cc(O)c2)cc1 [Compound 5g, N’-(2-(3,5-dihydroxyphenoxy)acetyl)-4-(2,5-dimethyl-1H-pyrrol-1-yl) benzohydrazide]
- MIC [1]: 3.12 µg/mL (≈ 7.89 µM)
- MIC [2]: 100 µg/mL (≈ 253 µM)
- MIC [3]: 3.12 µg/mL (≈ 7.89 µM)

SMILES: Cc1ccc(OCC(=O)NNC(=O)c2ccc(-n3cccc3)cc2)c(C)c1 [Compound 3d, N’-(2-(2,4-dimethylphenoxy)acetyl)-4-(1H-pyrrol-1yl)benzohydrazide]
- inhibition at 50 µM [4]: 48%
- MIC [1]: 3.12 µg/mL (≈ 8.59 µM)
- MIC [2]: 100 µg/mL (≈ 275 µM)
- MIC [3]: 1.6 µg/mL (≈ 4.4 µM)
- IC50 [5]: 32 µM
- MtDHFR inhibition compared with trimethoprim [5]: greater inhibition characteristics than trimethoprim
- IC50 [6]: 212 ± 0.4 µM
- IC50 [7]: 216 ± 0.4 µM

SMILES: Cc1ccc(OCC(=O)NNC(=O)c2ccc(-n3c(C)ccc3C)cc2)cc1 [Compound 5b, 4-(2,5-dimethyl-1H-pyrrol-1-yl)-N’-(2-(p-tolyloxy)acetyl) benzohydrazide]
- MIC [1]: 12.5 µg/mL (≈ 33.1 µM)
- MIC [2]: 100 µg/mL (≈ 265 µM)
- MIC [3]: 12.5 µg/mL (≈ 33.1 µM)

SMILES: O=C(COc1cc(O)cc(O)c1)NNC(=O)c1ccc(-n2cccc2)cc1 [Compound 3g, N’-(2-(3,5-dihydroxyphenoxy)acetyl)-4-(1H-pyrrol-1-yl) benzohydrazide]
- inhibition at 50 µM [4]: 63%
- MIC [1]: 3.12 µg/mL (≈ 8.49 µM)
- MIC [2]: 100 µg/mL (≈ 272 µM)
- MIC [3]: 1.6 µg/mL (≈ 4.36 µM)
- IC50 [5]: 20 µM
- MtDHFR inhibition compared with trimethoprim [5]: greater inhibition characteristics than trimethoprim
- IC50 [6]: 216 ± 0.5 µM
- IC50 [7]: 216 ± 0.5 µM

SMILES: Cc1ccc(C)n1-c1ccc(C(=O)NNC(=O)COc2ccccc2)cc1 [Compound 5a, 4-(2,5-dimethyl-1H-pyrrol-1-yl)-N’-(2-phenoxyacetyl) benzohydrazide]
- inhibition at 50 µM [4]: 26%
- MIC [1]: 6.25 µg/mL (≈ 17.2 µM)
- MIC [2]: 100 µg/mL (≈ 275 µM)
- MIC [3]: 6.25 µg/mL (≈ 17.2 µM)
- IC50 [5]: 98 µM

SMILES: O=C(COc1cccc(O)c1)NNC(=O)c1ccc(-n2cccc2)cc1 [Compound 3i, N’-(2-(3-hydroxyphenoxy)acetyl)-4-(1H-pyrrol-1-yl)benzohydrazide]
- MIC [1]: 12.5 µg/mL (≈ 35.6 µM)
- MIC [2]: 100 µg/mL (≈ 285 µM)
- MIC [3]: 12.5 µg/mL (≈ 35.6 µM)

SMILES: Cc1cccc(OCC(=O)NNC(=O)c2ccc(-n3c(C)ccc3C)cc2)c1 [Compound 5e, 4-(2,5-dimethyl-1H-pyrrol-1-yl)-N’-(2-(m-tolyloxy)acetyl) benzohy drazide]
- inhibition at 50 µM [4]: 66%
- MIC [1]: 1.6 µg/mL (≈ 4.24 µM)
- MIC [2]: 100 µg/mL (≈ 265 µM)
- MIC [3]: 3.12 µg/mL (≈ 8.27 µM)
- IC50 [5]: 62 µM
- MtDHFR inhibition compared with trimethoprim [5]: greater inhibition characteristics than trimethoprim
- IC50 [6]: 219 ± 0.3 µM
- IC50 [7]: 220 ± 0.2 µM

SMILES: O=C(COc1ccccc1O)NNC(=O)c1ccc(-n2cccc2)cc1 [Compound 3c, N’-(2-(2-hydroxyphenoxy)acetyl)-4-(1H-pyrrol-1-yl)benzohydrazide]
- inhibition at 50 µM [4]: 46%
- MIC [1]: 3.12 µg/mL (≈ 8.88 µM)
- MIC [2]: 100 µg/mL (≈ 285 µM)
- MIC [3]: 3.12 µg/mL (≈ 8.88 µM)
- IC50 [5]: 25 µM
- MtDHFR inhibition compared with trimethoprim [5]: greater inhibition characteristics than trimethoprim
- IC50 [6]: 224 ± 0.6 µM
- IC50 [7]: 223 ± 0.7 µM

SMILES: [H]/N=C(/N)N[C@H]1[C@H](O)[C@@H](O)[C@H](O[C@@H]2O[C@@H](C)[C@](O)(C=O)[C@H]2O[C@@H]2O[C@@H](CO)[C@H](O)[C@@H](O)[C@@H]2NC)[C@@H](N/C(N)=N\[H])[C@@H]1O [Streptomycin, reference compound]
- MIC [1]: 6.25 µg/mL (≈ 10.7 µM)

SMILES: Cc1ccc(C)n1-c1ccc(C(=O)NNC(=O)COc2ccccc2O)cc1 [Compound 5c, 4-(2,5-dimethyl-1H-pyrrol-1-yl)-N’-(2-(2-hydroxyphenoxy)acetyl) benzohydrazide]
- MIC [1]: 12.5 µg/mL (≈ 32.9 µM)
- MIC [2]: 100 µg/mL (≈ 264 µM)
- MIC [3]: 12.5 µg/mL (≈ 32.9 µM)

SMILES: Cc1ccc(C)n1-c1ccc(C(=O)NNC(=O)COc2ccc(Cl)cc2)cc1 [Compound 5f, N’-(2-(4-chlorophenoxy)acetyl)-4-(2,5-dimethyl-1H-pyrrol-1-yl) ben zohydrazide]
- MIC [1]: 3.12 µg/mL (≈ 7.84 µM)
- MIC [2]: 100 µg/mL (≈ 251 µM)
- MIC [3]: 6.25 µg/mL (≈ 15.7 µM)

SMILES: O=C(O)c1cn(C2CC2)c2cc(N3CCNCC3)c(F)cc2c1=O [Ciprofloxacin, reference compound]
- MIC [2]: 2 µg/mL (≈ 6.04 µM)
- MIC [3]: 2 µg/mL (≈ 6.04 µM)

SMILES: NNC(=O)c1ccncc1 [INH, Isoniazid, reference compound]
- IC50 [6]: > 450 µM
- IC50 [7]: > 450 µM

SMILES: O=C(COc1ccc(Cl)cc1)NNC(=O)c1ccc(-n2cccc2)cc1 [Compound 3f, N’-(2-(4-chlorophenoxy)acetyl)-4-(1H-pyrrol-1-yl)benzohydrazide]
- MIC [1]: 6.25 µg/mL (≈ 16.9 µM)
- MIC [2]: 100 µg/mL (≈ 270 µM)
- MIC [3]: 12.5 µg/mL (≈ 33.8 µM)
- IC50 [5]: 122 µM

SMILES: O=C(COc1ccccc1)NNC(=O)c1ccc(-n2cccc2)cc1 [Compound 3a, N’-(2-phenoxyacetyl)-4-(1H-pyrrol-1-yl) benzohydrazide]
- MIC [1]: 12.5 µg/mL (≈ 37.3 µM)
- MIC [2]: 100 µg/mL (≈ 298 µM)
- MIC [3]: 6.25 µg/mL (≈ 18.6 µM)

SMILES: Cc1cc(C)cc(OCC(=O)NNC(=O)c2ccc(-n3cccc3)cc2)c1 [Compound 3h, N’-(2-(3,5-dimethylphenoxy)acetyl)-4-(1H-pyrrol-1-yl) benzohydrazide]
- inhibition at 50 µM [4]: 59%
- MIC [1]: 3.12 µg/mL (≈ 8.59 µM)
- MIC [2]: 100 µg/mL (≈ 275 µM)
- MIC [3]: 3.12 µg/mL (≈ 8.59 µM)
- IC50 [5]: 19 µM
- MtDHFR inhibition compared with trimethoprim [5]: greater inhibition characteristics than trimethoprim
- IC50 [6]: 219 ± 0.1 µM
- IC50 [7]: 219 ± 0.6 µM

SMILES: Cc1ccc(OCC(=O)NNC(=O)c2ccc(-n3c(C)ccc3C)cc2)c(C)c1 [Compound 5d, 4-(2,5-dimethyl-1H-pyrrol-1-yl)-N’-(2-(2,4-dimethylphenoxy)acetyl) benzohydrazide]
- inhibition at 50 µM [4]: 62%
- MIC [1]: 1.6 µg/mL (≈ 4.09 µM)
- MIC [2]: 100 µg/mL (≈ 255 µM)
- MIC [3]: 3.12 µg/mL (≈ 7.97 µM)
- IC50 [5]: 56 µM
- MtDHFR inhibition compared with trimethoprim [5]: greater inhibition characteristics than trimethoprim
- IC50 [6]: 222 ± 0.5 µM
- IC50 [7]: 226 ± 0.5 µM
